Laboratory results taken from the supplement of paper PMC10307832.

Compound: C1CN(CCC1C(C2=CC3=C(C=C2)OCO3)(C4=CC5=C(C=C4)OCO5)O)C(=O)OC6=CC=C(C=C6)[N+](=O)[O-] [JZL-184]
Assay: relative viability (nuclei count vs DMSO), 5 days (fraction); higher = more cells survive
Procedure, shortened: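 Viability was read as treated-well nuclei divided by vehicle-well nuclei, using the median across plates. Lung cancer cell lines in 1536-well plates were kept overnight at 37 °C, pinned with five √10-spaced library-drug doses, and after 5 days were Hoechst-stained, imaged at 4× and counted in MetaXpress. Plates passed only with control CV below 25% and at least one doubling.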

| Cell Line | relative viability (0.04 µM) | relative viability (0.4 µM) | relative viability (1.265 µM) | relative viability (4 µM) |
| --- | --- | --- | --- | --- |
| NCI-H661 | 1.02 | 0.919 | 0.943 | 0.999 |
| NCI-H727 | 0.949 | 0.793 | 1.09 | 0.781 |
| NCI-H838 | 1.11 | 1.03 | 1.04 | 0.984 |
| NCI-H1355 | 0.984 | 0.927 | 1.06 | 0.946 |
| NCI-H1395 | 0.862 | 0.84 | 1.03 | 0.816 |
| NCI-H1437 | 1.04 | 0.948 | 1.02 | 0.961 |
| NCI-H1563 | 0.943 | 1.05 | 1.02 | 0.934 |
| NCI-H1650 | 1.07 | 0.895 | 1.16 | 0.915 |
| NCI-H1651 | 1.08 | 0.907 | 1 | 0.967 |
| NCI-H1666 | 1.01 | 1.01 | 0.967 | 1.04 |
| NCI-H1703 | 1.2 | 0.997 | 0.996 | 0.768 |
| NCI-H1734 | 1.12 | 0.865 | 1.03 | 0.963 |
| NCI-H1755 | 1.04 | 0.988 | 0.985 | 0.956 |
| NCI-H1792 | 1.03 | 0.836 | 0.883 | 1.18 |
| NCI-H1793 | 0.771 | 0.735 | 1.1 | 0.845 |
| NCI-H1915 | 1.09 | 0.956 | 1.1 | 0.976 |
| NCI-H1944 | 0.954 | 0.921 | 1.03 | 1.01 |
| NCI-H1975 | 0.996 | 0.938 | 1.01 | 0.915 |
| NCI-H1993 | 0.943 | 0.982 | 1.08 | 0.916 |

| Cell Line | relative viability (0.04 µM) | relative viability (0.4 µM) | relative viability (1.265 µM) | relative viability (4 µM) |
| --- | --- | --- | --- | --- |
| NCI-H2009 | 1.12 | 0.942 | 1.02 | 1 |
| NCI-H2023 | 1.15 | 0.921 | 1.01 | 0.944 |
| NCI-H2085 | 0.719 | 0.989 | 1.07 | 0.98 |
| NCI-H2087 | 1.15 | 0.99 | 1.04 | 1.11 |
| NCI-H2126 | 0.996 | 0.974 | 1.03 | 0.988 |
| NCI-H2170 | 1.1 | 0.948 | 1.02 | 0.928 |
| NCI-H2228 | 1.16 | 0.945 | 1.04 | 0.918 |
| NCI-H2342 | 0.851 | 0.878 | 1.03 | 1.02 |
| NCI-H2347 | 0.865 | 0.996 | 1.06 | 0.989 |
| NCI-H2405 | 1 | 0.982 | 1.11 | 1 |
| NCI-H3122 | 1.01 | 0.955 | 1.01 | 0.98 |
| PC-3 [JPC-3] | 1.04 | 0.978 | 1.1 | 1.01 |
| PC-14 | 1.24 | 0.974 | 1.07 | 0.936 |
| RERF-LC-KJ | 1.05 | 0.981 | 1.02 | 0.988 |
| SK-LU-1 | 1.11 | 0.982 | 1.15 | 1.02 |
| SK-MES-1 | 1.1 | 0.982 | 1.07 | 0.939 |
| SW 900 | 1.08 | 0.698 | 0.958 | 0.882 |
| SW 1573 | 1.15 | 0.926 | 1.08 | 1.02 |
| UMC-11 | 1.12 | 0.951 | 1.08 | 0.976 |
